Test results: patent US20230114728A1 (Venatorx Pharmaceuticals, Inc., priority 2019, published 2023)
≈ marks a conversion by molar mass, not a printed value.

Key:
Format in all cases: cell-based
A. baumannii ATCC 19606 = experiment: Broth microdilution MIC in CAMHB; details: Acinetobacter baumannii, ATCC19606; MHB; read-out: Minimum Inhibitory Concentration, A. baumannii ATCC 19606
Outline: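 Per CLSI broth microdilution, colonies were grown 3-5 h at 37° C in cation-adjusted Mueller Hinton broth, then diluted to a starting inoculum of 2-8×10^5 CFU/mL against 2-fold serial compound dilutions. Plates were incubated 16-20 h at 37° C, and MIC was read visually as the lowest concentration with no growth.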

[1] = test system: P. aeruginosa (ΔmexAB-oprM); experiment: Broth microdilution MIC in CAMHB; details: Pseudomonas aeruginosa, read-out: Minimum Inhibitory Concentration, P. aeruginosa ΔmexAB-OprM
Outline: (§1)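 Hyper-permeable or efflux-deficient strains serve to probe outer-membrane penetration. Growth inhibition is scored visually after 16-20 h at 37° C in CAMHB, starting from 2-8×10^5 CFU/mL.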

E. coli 901C = experiment: Broth microdilution MIC in CAMHB; details: Escherichia coli; E. coli 901C (hyper-permeable); MHB; read-out: Minimum Inhibitory Concentration, E. coli 901C
Outline: as §1

[2] = test system: K. pneumoniae UMM producing SHV-5 and KPC-2; experiment: Broth microdilution MIC in CAMHB; details: Klebsiella pneumoniae, read-out: Minimum Inhibitory Concentration, K. pneumoniae UMM
Outline: as §1

N. gonorrhoeae WHO K = experiment: Liquid broth MIC in Fastidious broth; details: Neisseria gonorrhoeae, read-out: Minimum Inhibitory Concentration, N. gonorrhoeae WHO K
Outline: (§2)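 Mosaic-PBP2 strains grown 24 h on chocolate agar (36 °C, 5% CO2), then direct-suspended in saline and OD600-adjusted. Twofold compound dilutions in Fastidious broth inoculated at 5×10^5 CFU/mL and incubated ~24 h at 36 °C, 5% CO2. MIC read visually as lowest concentration with <10% growth versus full-growth wells.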

N. gonorrhoeae WHO L = experiment: Liquid broth MIC in Fastidious broth; details: Neisseria gonorrhoeae; N. gonorrhoeae strain WHO L; Fastidious broth; read-out: Minimum Inhibitory Concentration, N. gonorrhoeae WHO L
Outline: (§3)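 Colonies were swabbed from chocolate agar after 24 h growth and standardised by optical density at 600 nm. Compounds were serially diluted twofold in Fastidious broth, and bacteria added to give 5×10^5 CFU/mL. After about 24 h at 36 °C in 5% CO2, the lowest concentration allowing under 10% growth was taken as MIC.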

N. gonorrhoeae H041 = experiment: Liquid broth MIC in Fastidious broth; details: Neisseria gonorrhoeae, H041, read-out: Minimum Inhibitory Concentration, N. gonorrhoeae H041
Outline: as §2

N. gonorrhoeae WHO Z = experiment: Liquid broth MIC in Fastidious broth; details: Neisseria gonorrhoeae, read-out: Minimum Inhibitory Concentration, N. gonorrhoeae WHO Z
Outline: as §2

N. gonorrhoeae FA1090 = experiment: Liquid broth MIC in Fastidious broth; details: Neisseria gonorrhoeae; N. gonorrhoeae strain FA1090; Fastidious broth; read-out: Minimum Inhibitory Concentration, N. gonorrhoeae FA1090
Outline: as §3

[3] = test system: N. gonorrhoeae ATCC 49226; experiment: Liquid broth MIC in Fastidious broth; details: Neisseria gonorrhoeae, ATCC49226; N. gonorrhoeae strain ATCC 49226; Fastidious broth; read-out: Minimum Inhibitory Concentration, N. gonorrhoeae ATCC 49226
Outline: as §3

N. gonorrhoeae WHO Q = experiment: Liquid broth MIC in Fastidious broth; details: Neisseria gonorrhoeae, read-out: Minimum Inhibitory Concentration, N. gonorrhoeae WHO Q
Outline: as §2

N. gonorrhoeae WHO G = experiment: Liquid broth MIC in Fastidious broth; details: Neisseria gonorrhoeae; N. gonorrhoeae strain WHO G; Fastidious broth; read-out: Minimum Inhibitory Concentration, N. gonorrhoeae WHO G
Outline: as §3

| Compound | MIC (A. baumannii ATCC 19606) | MIC [1] | MIC (E. coli 901C) | MIC [2] | MIC (N. gonorrhoeae WHO K) | MIC (N. gonorrhoeae WHO L) | MIC (N. gonorrhoeae H041) | MIC (N. gonorrhoeae WHO Z) | MIC (N. gonorrhoeae FA1090) | MIC [3] | MIC (N. gonorrhoeae WHO Q) | MIC (N. gonorrhoeae WHO G) |
| --- | --- | --- | --- | --- | --- | --- | --- | --- | --- | --- | --- | --- |
| NCCCN1CCN(C(=O)NC(C(=O)N[C@H]2Cc3cccc(C(=O)O)c3OB2O)c2c(F)cc(O)cc2F)C(=O)C1=O (stereo partly drawn) [Example 183, (3R)-3-(2-(4-(3-aminopropyl)-2,3-dioxopiperazine-1-carboxamido)-2-(2,6-difluoro-4-hydroxyphenyl)acetamido)-2-hydroxy-3,4-dihydro-2H-benzo[e][1,2]oxaborinine-8-carboxylic acid] | > 128 µg/mL | 8 to 16 µg/mL (≈ 13.6 to 27.2 µM) | 0.5 to 1 µg/mL (≈ 0.848 to 1.7 µM) | 8 to 16 µg/mL (≈ 13.6 to 27.2 µM) | > 64 µg/mL | > 64 µg/mL | > 64 µg/mL | > 64 µg/mL | 1 to 2 µg/mL (≈ 1.7 to 3.39 µM) | 16 to 32 µg/mL (≈ 27.2 to 54.3 µM) | > 64 µg/mL | 16 to 32 µg/mL (≈ 27.2 to 54.3 µM) |
| CCN1CCN(C(=O)NC(C(=O)N[C@H]2Cc3cccc(C(=O)O)c3OB2O)c2cc([N+](=O)[O-])c(O)cc2F)C(=O)C1=O (stereo partly drawn) [Example 184, (3R)-3-(2-(4-ethyl-2,3-dioxopiperazine-1-carboxamido)-2-(2-fluoro-4-hydroxy-5-nitrophenyl)acetamido)-2-hydroxy-3,4-dihydro-2H-benzo[e][1,2]oxaborinine-8-carboxylic acid] | > 128 µg/mL | 8 to 16 µg/mL (≈ 13.6 to 27.2 µM) | < 0.25 µg/mL | 32 to 64 µg/mL (≈ 54.5 to 109 µM) | 16 to 32 µg/mL (≈ 27.2 to 54.5 µM) | 16 to 32 µg/mL (≈ 27.2 to 54.5 µM) | 16 to 32 µg/mL (≈ 27.2 to 54.5 µM) | 4 to 8 µg/mL (≈ 6.81 to 13.6 µM) | < 0.125 µg/mL | 4 to 8 µg/mL (≈ 6.81 to 13.6 µM) | 4 to 8 µg/mL (≈ 6.81 to 13.6 µM) | 1 to 2 µg/mL (≈ 1.7 to 3.41 µM) |
| CCN1CCN(C(=O)NC(C(=O)N[C@H]2Cc3cccc(C(=O)O)c3OB2O)c2ccc(O)c(Cl)c2F)C(=O)C1=O (stereo partly drawn) [Example 185, (3R)-3-(2-(3-chloro-2-fluoro-4-hydroxyphenyl)-2-(4-ethyl-2,3-dioxopiperazine-1-carboxamido)acetamido)-2-hydroxy-3,4-dihydro-2H-benzo[e][1,2]oxaborinine-8-carboxylic acid] | > 128 µg/mL | 2 to 4 µg/mL (≈ 3.47 to 6.94 µM) | < 0.25 µg/mL | 32 to 64 µg/mL (≈ 55.5 to 111 µM) | 16 to 32 µg/mL (≈ 27.7 to 55.5 µM) | 16 to 32 µg/mL (≈ 27.7 to 55.5 µM) | 16 to 32 µg/mL (≈ 27.7 to 55.5 µM) | 4 to 8 µg/mL (≈ 6.94 to 13.9 µM) | < 0.125 µg/mL | 4 to 8 µg/mL (≈ 6.94 to 13.9 µM) | 16 to 32 µg/mL (≈ 27.7 to 55.5 µM) | 4 to 8 µg/mL (≈ 6.94 to 13.9 µM) |
| CCN1CCN(C(=O)NC(C(=O)N[C@H]2Cc3cccc(C(=O)O)c3OB2O)c2c(F)cc(NC(C)=O)cc2F)C(=O)C1=O (stereo partly drawn) [Example 188, (3R)-3-(2-(4-acetamido-2,6-difluorophenyl)-2-(4-ethyl-2,3-dioxopiperazine-1-carboxamido)acetamido)-2-hydroxy-3,4-dihydro-2H-benzo[e][1,2]oxaborinine-8-carboxylic acid] | > 128 µg/mL | 32 to 64 µg/mL (≈ 53.2 to 106 µM) | < 0.25 µg/mL | 32 to 64 µg/mL (≈ 53.2 to 106 µM) | > 64 µg/mL | > 64 µg/mL | > 64 µg/mL | 16 to 32 µg/mL (≈ 26.6 to 53.2 µM) | 0.25 to 0.5 µg/mL (≈ 0.416 to 0.831 µM) | 4 to 8 µg/mL (≈ 6.65 to 13.3 µM) | 16 to 32 µg/mL (≈ 26.6 to 53.2 µM) | 4 to 8 µg/mL (≈ 6.65 to 13.3 µM) |
| CCN1CCN(C(=O)NC(C(=O)N[C@H]2Cc3cccc(C(=O)O)c3OB2O)c2cc(C#N)c(OC)cc2F)C(=O)C1=O (stereo partly drawn) [Example 192, (3R)-3-(2-(5-cyano-2-fluoro-4-methoxyphenyl)-2-(4-ethyl-2,3-dioxopiperazine-1-carboxamido)acetamido)-2-hydroxy-3,4-dihydro-2H-benzo[e][1,2]oxaborinine-8-carboxylic acid] | > 128 µg/mL | 32 to 64 µg/mL (≈ 55 to 110 µM) | 2 to 4 µg/mL (≈ 3.44 to 6.88 µM) | > 128 µg/mL | > 64 µg/mL | > 64 µg/mL | > 64 µg/mL | > 64 µg/mL | 4 to 8 µg/mL (≈ 6.88 to 13.8 µM) | > 64 µg/mL | > 64 µg/mL | > 64 µg/mL |
